In patent publication US20260265329A1, “POLYPEPTIDE AND DERIVATIVE THEREOF, COMPOSITION, AND USE THEREOF” (HANGZHOU SCIWIND BIOSCIENCES CO., LTD., priority 2023, published 2026):
Starred links: 1 amine or outer side, 2 acyl side, 3 side chain; linkers in the order of their positions; H or OH if unused. Non-standard residues stand in square brackets, D forms with d. Residues, ends and D or L forms follow the SMILES beside them. ξ: configuration not given here. *: point of attachment. C20 diacid = O=C(O)CCCCCCCCCCCCCCCCCCC(=O)*; γGlu = O=C(O)[C@H](CCC(=O)[*:2])N[*:1]; βAsp = O=C(O)[C@H](CC(=O)[*:2])N[*:1]; Hyp = O=C(O)[C@@H]1C[C@@H](O)CN1; ξαMeN = CC(N)(CC(N)=O)C(=O)O; AEEA = NCCOCCOCC(=O)O; Inp = O=C(O)C1CCNCC1

Biological target: T1, human amylin receptors (Homo sapiens, UniProt O60896+P30988)
T1 construct: host or cells: CHO-K1/Ga15/AMY3 cells, further stably transfected with a CRE-luciferase plasmid
T1 sequence (P30988 25-474): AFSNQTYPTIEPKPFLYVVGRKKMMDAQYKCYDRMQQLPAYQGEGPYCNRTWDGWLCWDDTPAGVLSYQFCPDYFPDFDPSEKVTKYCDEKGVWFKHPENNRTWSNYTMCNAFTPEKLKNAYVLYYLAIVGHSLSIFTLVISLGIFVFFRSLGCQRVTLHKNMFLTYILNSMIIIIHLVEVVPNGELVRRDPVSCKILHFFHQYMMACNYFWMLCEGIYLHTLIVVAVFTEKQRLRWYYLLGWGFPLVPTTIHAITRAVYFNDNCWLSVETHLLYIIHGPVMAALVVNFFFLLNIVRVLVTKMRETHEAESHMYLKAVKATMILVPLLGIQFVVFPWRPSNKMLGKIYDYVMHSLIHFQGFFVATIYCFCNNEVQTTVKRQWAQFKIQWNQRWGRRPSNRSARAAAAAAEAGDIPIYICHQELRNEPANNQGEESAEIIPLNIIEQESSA
T1 sequence (O60896 24-148 partner): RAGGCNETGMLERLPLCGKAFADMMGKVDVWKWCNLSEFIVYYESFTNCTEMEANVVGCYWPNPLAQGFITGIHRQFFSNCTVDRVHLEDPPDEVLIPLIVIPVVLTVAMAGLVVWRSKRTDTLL
Assay: Luciferase assay in stably transfected amylin receptor/CRE-luc CHO cell line
Type: cell-based
Conditions: for Relative activity: EC50 ratio of Cagrilintide to the compound, Cagrilintide 100%; for EC50: amylin receptor/CRE-luc CHO cells, 24 hours incubation, luminescence
Excerpt: The objective of this assay is to test the potency of derivatives of polypeptides of the present application on human amylin receptors in vitro using a luciferase assay. Using the standard protocol, CHO-K1/Ga15/AMY3 cells (purchased from GenScript, with the calcitonin receptor and the receptor activity modifying peptide (RAMP) constructed already) were transfected with a plasmid containing a luciferase expression cassette driven by multiple copies of cAMP response elements (CREs). The cells were cultured in an F12 medium containing 200 μg/mL Zeocin, 2 μg/mL puromycin, 100 μg/mL hygromycin, and 400 μg/mL G418 to afford a stably transfected amylin receptor/CRE-luc cell line. The lyophilized powder from Example 1 was dissolved in 20 mM phosphate buffer solution with a pH of 7.0, and diluted in a growth medium (F12 culture medium containing 10% FBS) to give a derivative sample with an initial concentration of 10 nM, which was then subjected to a 5-fold serial dilution in the growth medium to obtain seven samples with concentrations between […]. In each well of a white 96-well plate, 50 μL of the tested sample solution was added with a corresponding concentration. The stably transfected amylin receptor/CRE-luc CHO cells were resuspended in the growth medium at a certain density, and 50 μL of the cell suspension was added at a density of about 20000 cells per well to the white 96-well plate containing the tested sample solution. After incubation of 24 hours at 37° C. and 5% CO2, 100 μL of a Luciferase substrate was added to each well, incubated for 3 minutes, and finally was tested for luminescence on SpectraMax L (Molecular Devices) with the software SoftMax Pro 7.0.3 GxP.

| SMILES | Relative activity | EC50 |
| --- | --- | --- |
| CC[C@H](C)[C@H](NC(=O)[C@@H]1CCCN1C(=O)[C@H](CCCCN)NC(=O)[C@H](CC(C)C)NC(=O)[C@H](CC(N)=O)NC(=O)[C@H](CC(N)=O)NC(=O)[C@H](CO)NC(=O)[C@H](CO)NC(=O)[C@H](Cc1c[nH]cn1)NC(=O)[C@H](CCCNC(=N)N)NC(=O)[C@H](CC(C)C)NC(=O)[C@H](Cc1ccccc1)NC(=O)[C@H](CC(=O)O)NC(=O)[C@H](C)NC(=O)[C@H](CC(C)C)NC(=O)[C@H](CCCNC(=N)N)NC(=O)[C@H](CCC(N)=O)NC(=O)[C@@H](NC(=O)[C@H](C)NC(=O)[C@H](C)NC(=O)[C@@H](NC(=O)[C@H](CO)NC(=O)[C@H](CC(C)C)NC(=O)[C@H](CCC(N)=O)NC(=O)[C@H](CO)NC(=O)[C@H](C)NC(=O)C[C@H](NC(=O)CCCCCCCCCCCCCCCCCCC(=O)O)C(=O)O)[C@@H](C)O)[C@@H](C)O)C(=O)N[C@@H](CC(C)C)C(=O)N1CCC[C@H]1C(=O)N1CCC[C@H]1C(=O)N[C@H](C(=O)N[C@@H](CC(N)=O)C(=O)N[C@H](C(=O)NCC(=O)N[C@@H](CO)C(=O)N[C@@H](CC(N)=O)C(=O)N[C@H](C(=O)N1C[C@H](O)C[C@H]1C(N)=O)[C@@H](C)O)C(C)C)[C@@H](C)O [M27] ({C20 diacid-βAsp}-ASQLSTAATQRLADFLRHSSNNLKPILPPTNVGSNT[Hyp]-NH2) | 78% | 0.064 nM |
| CC[C@H](C)[C@H](NC(=O)[C@H](CC(=O)O)NC(=O)[C@H](CCCNC(=N)N)NC(=O)[C@H](CC(=O)O)NC(=O)[C@H](CCCNC(=N)N)NC(=O)[C@H](CC(=O)O)NC(=O)[C@@H](NC(=O)[C@H](Cc1ccccc1)NC(=O)[C@H](Cc1c[nH]cn1)NC(=O)[C@H](CCCNC(=N)N)NC(=O)[C@H](CC(C)C)NC(=O)[C@H](Cc1ccccc1)NC(=O)[C@H](CC(=O)O)NC(=O)[C@H](C)NC(=O)[C@H](CC(C)C)NC(=O)[C@H](CCCNC(=N)N)NC(=O)[C@H](CCC(N)=O)NC(=O)[C@@H](NC(=O)[C@H](C)NC(=O)[C@H](C)NC(=O)[C@@H](NC(=O)[C@H](CO)NC(=O)[C@H](CC(C)C)NC(=O)[C@H](CCC(N)=O)NC(=O)[C@H](CO)NC(=O)[C@H](C)NC(=O)COCCOCCNC(=O)COCCOCCNC(=O)CC[C@H](NC(=O)CCCCCCCCCCCCCCCCCCC(=O)O)C(=O)O)[C@@H](C)O)[C@@H](C)O)[C@@H](C)O)C(=O)N[C@@H](CC(C)C)C(=O)N1CCC[C@H]1C(=O)N1CCC[C@H]1C(=O)N[C@H](C(=O)N[C@@H](CC(N)=O)C(=O)N[C@H](C(=O)NCC(=O)N[C@@H](CO)C(=O)N[C@@H](CC(N)=O)C(=O)N[C@H](C(=O)N1CCC[C@H]1C(N)=O)[C@@H](C)O)C(C)C)[C@@H](C)O [M16] ({C20 diacid-γGlu-AEEA-AEEA}-ASQLSTAATQRLADFLRHFTDRDRDILPPTNVGSNTP-NH2) | 58% | 0.042 nM |
| CC[C@H](C)[C@H](NC(=O)[C@@H]1CCCN1C(=O)[C@H](CCCCN)NC(=O)[C@H](CC(C)C)NC(=O)[C@H](CC(N)=O)NC(=O)[C@H](CC(N)=O)NC(=O)[C@H](CO)NC(=O)[C@H](CO)NC(=O)[C@H](Cc1c[nH]cn1)NC(=O)[C@H](CCCNC(=N)N)NC(=O)[C@H](CC(C)C)NC(=O)[C@H](Cc1ccccc1)NC(=O)[C@H](CC(=O)O)NC(=O)[C@H](C)NC(=O)[C@H](CC(C)C)NC(=O)[C@H](CCCNC(=N)N)NC(=O)[C@H](CCC(N)=O)NC(=O)[C@@H](NC(=O)[C@H](C)NC(=O)[C@H](C)NC(=O)[C@@H](NC(=O)[C@H](CO)NC(=O)[C@H](CC(C)C)NC(=O)[C@H](CCC(N)=O)NC(=O)[C@H](CO)NC(=O)[C@H](C)NC(=O)C1CCN(C(=O)CCCCCCCCCCCCCCCCCCC(=O)O)CC1)[C@@H](C)O)[C@@H](C)O)C(=O)N[C@@H](CC(C)C)C(=O)N1CCC[C@H]1C(=O)N1CCC[C@H]1C(=O)N[C@H](C(=O)N[C@@H](CC(N)=O)C(=O)N[C@H](C(=O)NCC(=O)N[C@@H](CO)C(=O)N[C@@H](CC(N)=O)C(=O)N[C@H](C(=O)N1C[C@H](O)C[C@H]1C(N)=O)[C@@H](C)O)C(C)C)[C@@H](C)O [M30] ({C20 diacid-Inp}-ASQLSTAATQRLADFLRHSSNNLKPILPPTNVGSNT[Hyp]-NH2) |  | 0.039 nM |
| CC[C@H](C)[C@H](NC(=O)[C@H](CC(=O)O)NC(=O)[C@H](CCCNC(=N)N)NC(=O)[C@H](CC(=O)O)NC(=O)[C@H](CCCNC(=N)N)NC(=O)[C@H](CC(=O)O)NC(=O)[C@@H](NC(=O)[C@H](Cc1ccccc1)NC(=O)[C@H](Cc1c[nH]cn1)NC(=O)[C@H](CCCNC(=N)N)NC(=O)[C@H](CC(C)C)NC(=O)[C@H](Cc1ccccc1)NC(=O)[C@H](CC(=O)O)NC(=O)[C@H](C)NC(=O)[C@H](CC(C)C)NC(=O)[C@H](CCCNC(=N)N)NC(=O)[C@H](CCC(N)=O)NC(=O)[C@@H](NC(=O)[C@H](C)NC(=O)[C@H](C)NC(=O)[C@@H](NC(=O)[C@H](CO)NC(=O)[C@H](CC(C)C)NC(=O)[C@H](CCC(N)=O)NC(=O)[C@H](CO)NC(=O)[C@H](C)NC(=O)COCCOCCNC(=O)COCCOCCNC(=O)C[C@H](NC(=O)CCCCCCCCCCCCCCCCCCC(=O)O)C(=O)O)[C@@H](C)O)[C@@H](C)O)[C@@H](C)O)C(=O)N[C@@H](CC(C)C)C(=O)N1CCC[C@H]1C(=O)N1CCC[C@H]1C(=O)N[C@H](C(=O)N[C@@H](CC(N)=O)C(=O)N[C@H](C(=O)NCC(=O)N[C@@H](CO)C(=O)N[C@@H](CC(N)=O)C(=O)N[C@H](C(=O)N1CCC[C@H]1C(N)=O)[C@@H](C)O)C(C)C)[C@@H](C)O [M18] ({C20 diacid-βAsp-AEEA-AEEA}-ASQLSTAATQRLADFLRHFTDRDRDILPPTNVGSNTP-NH2) | 110% |  |
| CC[C@H](C)[C@H](NC(=O)[C@@H]1CCCN1C(=O)[C@H](CCCCN)NC(=O)[C@H](CC(C)C)NC(=O)C(C)(CC(N)=O)NC(=O)[C@H](CC(N)=O)NC(=O)[C@H](CO)NC(=O)[C@H](CO)NC(=O)[C@H](Cc1c[nH]cn1)NC(=O)[C@H](CCCNC(=N)N)NC(=O)[C@H](CC(C)C)NC(=O)[C@H](Cc1ccccc1)NC(=O)[C@H](CC(=O)O)NC(=O)[C@H](C)NC(=O)[C@H](CC(C)C)NC(=O)[C@H](CCCNC(=N)N)NC(=O)[C@H](CCC(N)=O)NC(=O)[C@@H](NC(=O)[C@H](C)NC(=O)[C@H](C)NC(=O)[C@@H](NC(=O)[C@H](CO)NC(=O)[C@H](CC(C)C)NC(=O)[C@H](CCC(N)=O)NC(=O)[C@H](CO)NC(=O)[C@H](C)NC(=O)CC[C@H](NC(=O)CCCCCCCCCCCCCCCCCCC(=O)O)C(=O)O)[C@@H](C)O)[C@@H](C)O)C(=O)N[C@@H](CC(C)C)C(=O)N1CCC[C@H]1C(=O)N1CCC[C@H]1C(=O)N[C@H](C(=O)N[C@@H](CC(N)=O)C(=O)N[C@H](C(=O)NCC(=O)N[C@@H](CO)C(=O)N[C@@H](CC(N)=O)C(=O)N[C@H](C(=O)N1C[C@H](O)C[C@H]1C(N)=O)[C@@H](C)O)C(C)C)[C@@H](C)O (stereo partly drawn) [M55] ({C20 diacid-γGlu}-ASQLSTAATQRLADFLRHSSN[ξαMeN]LKPILPPTNVGSNT[Hyp]-NH2) | 233% |  |
| CC[C@H](C)[C@H](NC(=O)[C@H](CC(=O)O)NC(=O)[C@H](CCCNC(=N)N)NC(=O)[C@H](CC(=O)O)NC(=O)[C@H](CCCNC(=N)N)NC(=O)[C@H](CC(=O)O)NC(=O)[C@@H](NC(=O)[C@H](Cc1ccccc1)NC(=O)[C@H](Cc1c[nH]cn1)NC(=O)[C@H](CCCNC(=N)N)NC(=O)[C@H](CC(C)C)NC(=O)[C@H](Cc1ccccc1)NC(=O)[C@H](CC(=O)O)NC(=O)[C@H](C)NC(=O)[C@H](CC(C)C)NC(=O)[C@H](CCCNC(=N)N)NC(=O)[C@H](CCC(N)=O)NC(=O)[C@@H](NC(=O)[C@H](C)NC(=O)[C@H](C)NC(=O)[C@@H](NC(=O)[C@H](CO)NC(=O)[C@H](CC(C)C)NC(=O)[C@H](CCC(N)=O)NC(=O)[C@H](CO)NC(=O)[C@H](C)NC(=O)COCCOCCNC(=O)COCCOCCNC(=O)C1CCN(C(=O)CCCCCCCCCCCCCCCCCCC(=O)O)CC1)[C@@H](C)O)[C@@H](C)O)[C@@H](C)O)C(=O)N[C@@H](CC(C)C)C(=O)N1CCC[C@H]1C(=O)N1CCC[C@H]1C(=O)N[C@H](C(=O)N[C@@H](CC(N)=O)C(=O)N[C@H](C(=O)NCC(=O)N[C@@H](CO)C(=O)N[C@@H](CC(N)=O)C(=O)N[C@H](C(=O)N1CCC[C@H]1C(N)=O)[C@@H](C)O)C(C)C)[C@@H](C)O [M21] ({C20 diacid-Inp-AEEA-AEEA}-ASQLSTAATQRLADFLRHFTDRDRDILPPTNVGSNTP-NH2) | 126% | 0.023 nM |
